# Reference: US11192865B2, “Benzosulfonyl compounds” (Vivace Therapeutics, Inc., priority 2017, dated 2021)
# Tested on: 8XTBD luciferase reporter
# Assay: YAP Reporter Assay
# Assay type: cell-based
# Conditions: Homo sapiens, HEK-293T; HEK293T cells stably transfected with 8XTBD luciferase reporter and pRLTK; 24-hr incubation; starting from 3 μM, 1:3 dilution, 10 points; read-out: Firefly Luciferase IC50
# In short: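 HEK293T cells stably carrying the 8XTBD firefly luciferase reporter and TK-renilla control received compounds at a 10-point, 1:3 series from 3 μM (final) in quadruplicate. After 24 h at 37° C, Dual-Glo luminescence was read. IC50 and maximal inhibition were reported separately for firefly and renilla signals.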
row,Structure (SMILES),IC50 [nM]
1,"CS(=O)(=O)c1ccc(NC2CCCCC2)c(-n2nccn2)c1 [Compound 13, N-cyclohexyl-4-(methylsulfonyl)-2-(2H-1,2,3-triazol-2-yl)aniline]",100 to 1000
2,"CNS(=O)(=O)c1ccc(NC2CCCCC2)c(-c2nnn(C3CCCNC3)n2)c1 (stereo not drawn) [Compound 74, 4-(cyclohexylamino)-N-methyl-3-(2-(piperidin-3-yl)-2H-tetrazol-5-yl)benzenesulfonamide]",100 to 1000
3,"CNS(=O)(=O)c1ccc(NC2CCCCC2)c(-c2cn(C(C)C)cn2)c1 [Compound 113, 4-(cyclohexylamino)-3-(1-isopropyl-1H-imidazol-4-yl)-N-methylbenzenesulfonamide]",≤ 100
4,"CNS(=O)(=O)c1ccc(Nc2cccc(OC(F)(F)F)c2)c(-c2nnn(C)n2)c1 [Compound 94, N-methyl-3-(2-methyl-2H-tetrazol-5-yl)-4-((3-(trifluoromethoxy)phenyl)amino)benzenesulfonamide]",≤ 100
5,"CNS(=O)(=O)c1ccc(NC2CCCCC2)c(-c2nnn(C3CCCN(c4cccnc4)C3)n2)c1 (stereo not drawn) [Compound 86, 4-(cyclohexylamino)-N-methyl-3-(2-(1-(pyridin-3-yl)piperidin-3-yl)-2H-tetrazol-5-yl)benzenesulfonamide]",100 to 1000
6,"CNS(=O)(=O)c1ccc(NC2CCCCC2)c(-c2ncccc2F)c1 [Compound 79, 4-(cyclohexylamino)-3-(3-fluoropyridin-2-yl)-N-methylbenzenesulfonamide]",≤ 100
